The target of one assay is E. coli PBP3 (Escherichia coli (strain K12), UniProt P0AD68). Put plainly: E. coli PBP3 Bocillin-FL fluorescence polarization competition binding assay. An outline of the steps: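 Polarization at 490/520 nm was monitored for 60 minutes in pH 8.0 Hepes buffer containing 300 mM NaCl and 5% glycerol, with compound spanning 0–1000 μM.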
On the technique in general: Fluorescence polarisation rises when a labelled molecule tumbles more slowly, as on binding a larger partner.

The target of the next assay is E. coli PBP1b (Escherichia coli (strain K12), UniProt P02919). Put plainly: Radioligand competition binding assay with 14C-labeled boronic acid probe, PBP1b. An excerpt:
To determine the ability of boronic acid-based test PBP inhibitors to bind Penicillin Binding Proteins (PBPs), a radio-labelled boronic acid PBP inhibitor
[drawing 751] was used in competition binding assays to determine boronic acid PBP inhibitor binding to PBP1a or PBP1b from Escherichia coli. PBP1a and PBP1b were purified as described previously (Bertsche, U.; et al., J. Biol. Chem. 2005, 280 (45), 38096-38101; Born, P.; et al., J. Biol. Chem. 2006. 281 (37), 26985-26993). To establish assay conditions for competition binding, an enzyme titration/saturation binding experiment was performed. Saturation binding was performed in a buffer comprised of 20 mM Tris (pH 7.5), 500 mM NaCl and 0.1% (v/v) TritonX-100, with PBP1a/PBP1b at a final concentration of 0.1 μM and Compound A at final concentrations ranging from 0-100 μM. Mixtures were incubated for 60 minutes, then applied to Zeba Spin Desalting columns or plates (ThermoFisher Scientific) and centrifuged at 1000-1500×g for 2 minutes. The flow through, containing PBP bound with Compound A, was recovered and 100 μL mixed with 5 mL of UltimaGold liquid scintillation cocktail (Perkin Elmer), and the radioactivity counted using a Beckman Coulter LS 6500 Multipurpose scintillation counter. PBP binding of Compound A approached saturation at 20 μM of ^14C-labeled probe. The competition binding assay was validated using the beta-lactam ampicillin, with Compound A at a final concentration of 20 μM, PBP1a/PBP1b at a final concentration of 0.1 μM. PBP1a/PBP1b was incubated with ampicillin in a 96-well microplate for 60 minutes, then Compound A was added and the mixtures incubated for an additional 60 minutes. The mixtures were then applied to Zeba Spin desalting plates and centrifuged at 1000×g for 2 minutes. The flow through was recovered and 100 μl mixed with 5 ml of UltimaGold liquid scintillation cocktail and the radioactivity counted. […] Binding assays with boronic acid PBP inhibitors were performed in an identical fashion. The potency of boronic acid PBP inhibitors was reported as the EC50 value.
(In general: In a radioligand displacement assay an active substance lowers the binding of a labelled ligand.)

Assay [1] concerns engineered strain of Escherichia coli harboring CTX-M15. Description: microbe, parasite or virus in culture. It is filed as cell-based. Particulars: Escherichia coli, read-out: Microbiological Activity (MIC in mg/L), E. coli DH5α/pLBII-CTX-M15, engineered strain producing CTX-M15.
The mark [2] stands for this setting: fluorescence polarization competition binding with Bocillin-FL, read-out: E. coli K12 PBP3 Potency.

≈ marks a conversion by molar mass, not a printed value. Where a name gives a salt, the structure may show the parent alone. Read-outs that look alike come from different tables or passages of the source.

Chain of E. coli PBP3 (P0AD68 whole entry): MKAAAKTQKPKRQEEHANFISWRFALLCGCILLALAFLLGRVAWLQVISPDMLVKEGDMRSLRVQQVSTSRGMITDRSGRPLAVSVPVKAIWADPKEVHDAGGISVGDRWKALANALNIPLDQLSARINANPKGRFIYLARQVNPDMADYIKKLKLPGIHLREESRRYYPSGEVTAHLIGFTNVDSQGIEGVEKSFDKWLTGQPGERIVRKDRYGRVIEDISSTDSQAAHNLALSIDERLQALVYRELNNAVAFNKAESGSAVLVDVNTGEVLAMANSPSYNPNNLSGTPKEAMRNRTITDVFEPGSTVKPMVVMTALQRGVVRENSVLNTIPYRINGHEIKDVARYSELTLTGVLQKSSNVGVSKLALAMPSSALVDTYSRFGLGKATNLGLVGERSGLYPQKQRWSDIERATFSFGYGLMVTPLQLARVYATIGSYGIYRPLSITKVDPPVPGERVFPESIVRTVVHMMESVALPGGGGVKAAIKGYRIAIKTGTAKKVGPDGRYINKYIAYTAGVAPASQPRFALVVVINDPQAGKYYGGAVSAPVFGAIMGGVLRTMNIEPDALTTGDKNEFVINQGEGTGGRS
Chain of E. coli PBP1b (P02919 whole entry): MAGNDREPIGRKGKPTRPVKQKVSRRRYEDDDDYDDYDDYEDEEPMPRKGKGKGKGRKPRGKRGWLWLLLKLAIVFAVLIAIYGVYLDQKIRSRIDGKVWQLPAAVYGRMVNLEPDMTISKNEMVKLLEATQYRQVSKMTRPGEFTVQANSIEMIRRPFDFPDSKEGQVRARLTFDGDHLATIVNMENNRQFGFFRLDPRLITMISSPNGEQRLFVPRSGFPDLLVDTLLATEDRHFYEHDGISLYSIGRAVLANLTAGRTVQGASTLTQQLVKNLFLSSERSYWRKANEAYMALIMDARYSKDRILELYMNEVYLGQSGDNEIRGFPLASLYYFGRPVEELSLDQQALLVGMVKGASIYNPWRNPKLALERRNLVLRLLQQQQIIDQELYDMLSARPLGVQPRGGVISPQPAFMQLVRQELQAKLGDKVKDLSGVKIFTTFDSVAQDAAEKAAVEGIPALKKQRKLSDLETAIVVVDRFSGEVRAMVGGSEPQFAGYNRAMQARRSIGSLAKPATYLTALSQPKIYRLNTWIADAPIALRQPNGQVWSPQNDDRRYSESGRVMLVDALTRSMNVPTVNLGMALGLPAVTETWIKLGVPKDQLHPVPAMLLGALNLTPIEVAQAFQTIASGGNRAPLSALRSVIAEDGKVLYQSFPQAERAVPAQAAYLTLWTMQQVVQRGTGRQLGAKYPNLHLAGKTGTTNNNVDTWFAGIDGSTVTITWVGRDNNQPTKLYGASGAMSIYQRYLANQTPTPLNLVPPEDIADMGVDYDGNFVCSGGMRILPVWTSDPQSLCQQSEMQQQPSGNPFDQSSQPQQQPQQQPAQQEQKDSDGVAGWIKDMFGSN

In the case of `CCN1CCN(C(=O)NC(C(=O)N[C@H]2Cc3cccc(C(=O)O)c3OB2O)c2cnn(C)c2)C(=O)C1=O` (stereo partly drawn) [Example 60, (3R)-3-(2-(4-ethyl-2,3-dioxopiperazine-1-carboxamido)-2-(1-methyl-1H-pyrazol-4-yl)acetamido)-2-hydroxy-3,4-dihydro-2H-benzo[e][1,2]oxaborinine-8-carboxylic acid], the EC50 on E. coli PBP3 lay in the range of 30 to 500 µM; on E. coli PBP1b, 10 to 100 µM. Also, the MIC in assay [1] lay within 32 to 64 mg/L (≈ 62.5 to 125 µM).

With `CCN1CCN(C(=O)N[C@H](C(=O)N[C@H]2Cc3cccc(C(=O)O)c3OB2O)C2(CO)CC2)C(=O)C1=O` [Example 63, (R)-3-((S)-2-(4-ethyl-2,3-dioxopiperazine-1-carboxamido)-2-(1-(hydroxymethyl)cyclopropyl)acetamido)-2-hydroxy-3,4-dihydro-2H-benzo[e][1,2]oxaborinine-8-carboxylic acid], the results for the EC50 at E. coli PBP3 (setting [2]) and on E. coli PBP1b were more than 500 µM and less than 10 µM, respectively. Also, the MIC in assay [1] lay within 128 to 256 mg/L (≈ 255 to 510 µM).

With `CCN1CCN(C(=O)NC(C(=O)N[C@H]2Cc3cccc(C(=O)O)c3OB2O)c2ccc(CCN)cc2)C(=O)C1=O` (stereo partly drawn) [Example 64, (3R)-3-(2-(4-(2-aminoethyl)phenyl)-2-(4-ethyl-2,3-dioxopiperazine-1-carboxamido)acetamido)-2-hydroxy-3,4-dihydro-2H-benzo[e][1,2]oxaborinine-8-carboxylic acid], the EC50 is more than 500 µM at E. coli PBP3 (setting [2]) and 10 to 100 µM at E. coli PBP1b. Besides, the MIC in assay [1] is 128 to 256 mg/L (≈ 232 to 464 µM).

For the compound `CCN1CCN(C(=O)NC(C(=O)N[C@H]2Cc3cccc(C(=O)O)c3OB2O)c2ccc(O)nc2Cl)C(=O)C1=O` (stereo partly drawn) [Example 67, (3R)-3-(2-(2-chloro-6-hydroxypyridin-3-yl)-2-(4-ethyl-2,3-dioxopiperazine-1-carboxamido)acetamido)-2-hydroxy-3,4-dihydro-2H-benzo[e][1,2]oxaborinine-8-carboxylic acid], the EC50 at E. coli PBP3 was in the range of 30 to 500 µM; at E. coli PBP1b it was 10 to 100 µM. Also, the MIC in assay [1] was in the range of 128 to 256 mg/L (≈ 229 to 457 µM).

Take `CCN1CCN(C(=O)NC(CNS(N)(=O)=O)C(=O)N[C@H]2Cc3cccc(C(=O)O)c3OB2O)C(=O)C1=O` (stereo partly drawn) [Example 68, (3R)-3-(2-(4-ethyl-2,3-dioxopiperazine-1-carboxamido)-3-(sulfamoylamino)propanamido)-2-hydroxy-3,4-dihydro-2H-benzo[e][1,2]oxaborinine-8-carboxylic acid]: the EC50 at E. coli PBP3 (setting [2]) was more than 500 µM; on E. coli PBP1b, less than 10 µM. For the same compound, the MIC in assay [1] is 32 to 64 mg/L (≈ 59.2 to 118 µM).

With `CCN1CCN(C(=O)NC(CNC(C)=O)C(=O)N[C@H]2Cc3cccc(C(=O)O)c3OB2O)C(=O)C1=O` (stereo partly drawn) [Example 69, (3R)-3-(3-acetamido-2-(4-ethyl-2,3-dioxopiperazine-1-carboxamido)propanamido)-2-hydroxy-3,4-dihydro-2H-benzo[e][1,2]oxaborinine-8-carboxylic acid], the EC50 at E. coli PBP3 (setting [2]) is more than 500 µM; on E. coli PBP1b, less than 10 µM. Also, in assay [1], the MIC lay within 128 to 256 mg/L (≈ 254 to 509 µM).

Turning to `CCN1CCN(C(=O)NC(C(=O)N[C@H]2Cc3cccc(C(=O)O)c3OB2O)C2CCN(CC(=O)O)CC2)C(=O)C1=O` (stereo partly drawn) [Example 72, (3R)-3-(2-(1-(carboxymethyl)piperidin-4-yl)-2-(4-ethyl-2,3-dioxopiperazine-1-carboxamido)acetamido)-2-hydroxy-3,4-dihydro-2H-benzo[e][1,2]oxaborinine-8-carboxylic acid, trifluoroacetic acid salt], the EC50 was 30 to 500 µM on E. coli PBP3 and less than 10 µM on E. coli PBP1b. In assay [1], the MIC was in the range of 128 to 256 mg/L.

As for `CCN1CCN(C(=O)N[C@H](CNCC(=O)O)C(=O)N[C@H]2Cc3cccc(C(=O)O)c3OB2O)C(=O)C1=O` [Example 73, (R)-3-((R)-3-((carboxymethyl)amino)-2-(4-ethyl-2,3-dioxopiperazine-1-carbox-amido)propanamido)-2-hydroxy-3,4-dihydro-2H-benzo[e][1,2]oxaborinine-8-carboxylic acid, trifluoroacetic acid salt], the EC50 on E. coli PBP3 (setting [2]) is more than 500 µM; on E. coli PBP1b it was more than 100 µM. Moreover, the MIC in assay [1] was in the range of 128 to 256 mg/L.

Take `CCN1CCN(C(=O)NC(C(=O)N[C@H]2Cc3cccc(C(=O)O)c3OB2O)c2ccc(OCCO)cc2)C(=O)C1=O` (stereo partly drawn) [Example 74, (3R)-3-(2-(4-ethyl-2,3-dioxopiperazine-1-carboxamido)-2-(4-(2-hydroxyethoxy)phenyl)acetamido)-2-hydroxy-3,4-dihydro-2H-benzo[e][1,2]oxaborinine-8-carboxylic acid]: the EC50 at E. coli PBP3 is 30 to 500 µM; at E. coli PBP1b it was more than 100 µM. Besides, the MIC in assay [1] fell in the range of 128 to 256 mg/L (≈ 225 to 450 µM).

Regarding `CCN1CCN(C(=O)NC(C(=O)N[C@H]2Cc3cccc(C(=O)O)c3OB2O)C2CCN(S(N)(=O)=O)CC2)C(=O)C1=O` (stereo partly drawn) [Example 77, (3R)-3-(2-(4-ethyl-2,3-dioxopiperazine-1-carboxamido)-2-(1-sulfamoylpiperidin-4-yl)acetamido)-2-hydroxy-3,4-dihydro-2H-benzo[e][1,2]oxaborinine-8-carboxylic acid], the EC50 at E. coli PBP3 was 30 to 500 µM; at E. coli PBP1b, less than 10 µM. In addition, in assay [1], the MIC is 128 to 256 mg/L (≈ 215 to 431 µM).

`CCN1CCN(C(=O)NC(C(=O)N[C@H]2Cc3cccc(C(=O)O)c3OB2O)C2CN(S(N)(=O)=O)C2)C(=O)C1=O` (stereo partly drawn) [Example 78, (3R)-3-(2-(4-ethyl-2,3-dioxopiperazine-1-carboxamido)-2-(1-sulfamoylazetidin-3-yl)acetamido)-2-hydroxy-3,4-dihydro-2H-benzo[e][1,2]oxaborinine-8-carboxylic acid] registered an EC50 on E. coli PBP1b of more than 100 µM. The MIC in assay [1] lay in the range of 128 to 256 mg/L (≈ 226 to 452 µM).

Consider `CCN1CCN(C(=O)N[C@@H](CNS(C)(=O)=O)C(=O)N[C@H]2Cc3cccc(C(=O)O)c3OB2O)C(=O)C1=O` [Example 84, (R)-3-((S)-2-(4-ethyl-2,3-dioxopiperazine-1-carboxamido)-3-(methylsulfonamido)propanamido)-2-hydroxy-3,4-dihydro-2H-benzo[e][1,2]oxaborinine-8-carboxylic acid], for which the EC50 at E. coli PBP3 was 30 to 500 µM; on E. coli PBP1b, less than 10 µM. The MIC in assay [1] fell in the range of 128 to 256 mg/L (≈ 237 to 475 µM).

As for `CCN1CCN(C(=O)NC(C(=O)N[C@H]2Cc3cccc(C(=O)O)c3OB2O)c2ccc(O)cc2Cl)C(=O)C1=O` (stereo partly drawn) [Example 88, (3R)-3-(2-(2-chloro-4-hydroxyphenyl)-2-(4-ethyl-2,3-dioxopiperazine-1-carboxamido)acetamido)-2-hydroxy-3,4-dihydro-2H-benzo[e][1,2]oxaborinine-8-carboxylic acid], the results for the EC50 at E. coli PBP3 (setting [2]) and on E. coli PBP1b were less than 30 µM and less than 10 µM, respectively. For the same compound, the MIC in assay [1] was in the range of 128 to 256 mg/L (≈ 229 to 458 µM).

As to `CCN1CCN(C(=O)N[C@@H](C(=O)N[C@H]2Cc3cccc(C(=O)O)c3OB2O)C2CCN(C(=N)N)CC2)C(=O)C1=O` [Example 91, (R)-3-((R)-2-(1-carbamimidoylpiperidin-4-yl)-2-(4-ethyl-2,3-dioxopiperazine-1-carboxamido)acetamido)-2-hydroxy-3,4-dihydro-2H-benzo[e][1,2]oxaborinine-8-carboxylic acid], the EC50 on E. coli PBP3 is more than 500 µM; on E. coli PBP1b it was less than 10 µM. Besides, in assay [1], the MIC lay in the range of 128 to 256 mg/L (≈ 230 to 459 µM).

Take `CCN1CCN(C(=O)N[C@H](C(=O)N[C@H]2Cc3cccc(C(=O)O)c3OB2O)C2CCN(C(=N)N)CC2)C(=O)C1=O` [Example 92, (R)-3-((S)-2-(1-carbamimidoylpiperidin-4-yl)-2-(4-ethyl-2,3-dioxopiperazine-1-carboxamido)acetamido)-2-hydroxy-3,4-dihydro-2H-benzo[e][1,2]oxaborinine-8-carboxylic acid]: the results for the EC50 on E. coli PBP3 and on E. coli PBP1b were more than 500 µM and less than 10 µM, respectively. For the same compound, in assay [1], the MIC was 128 to 256 mg/L (≈ 230 to 459 µM).

For the compound `CCN1CCN(C(=O)NC(C(=O)N[C@H]2Cc3cccc(C(=O)[O-])c3OB2O)c2ccc[n+](C)c2)C(=O)C1=O` (stereo partly drawn) [Example 106, (3R)-3-(2-(4-ethyl-2,3-dioxopiperazine-1-carboxamido)-2-(1-methylpyridin-1-ium-3-yl)acetamido)-2-hydroxy-3,4-dihydro-2H-benzo[e][1,2]oxaborinine-8-carboxylate], the EC50 was more than 500 µM at E. coli PBP3 (setting [2]) and less than 10 µM at E. coli PBP1b. For the same compound, the MIC in assay [1] was 32 to 64 mg/L (≈ 61.1 to 122 µM).
